Data as given in patent US5494936A, “Delivery formulation for probucol” (priority 1994, dated 1996).
Where two headings read alike, the source gives them in different places.

Assays:
[1] = system: HIV; settings: cited from earlier work
[2] = Solubility of probucol; assay type: physicochemical; settings: formulation A; 10% probucol; ethanol not required to prevent precipitation
Method: The ethanol was added as a cosolvent to prevent precipitation of probucol from the peanut oil in formulations B & C.

[3] = cited from earlier work

Structure (SMILES): Cc1cn([C@H]2C[C@H](N=[N+]=[N-])[C@@H](CO)O2)c(=O)[nH]c1=O [AZT]
- death rate ([1]; after one year, 159 patients, estimated average CD4+ count 189): 15%

Structure (SMILES): CC(C)(Sc1cc(C(C)(C)C)c(O)c(C(C)(C)C)c1)Sc1cc(C(C)(C)C)c(O)c(C(C)(C)C)c1 [Probucol, bis(3,5-di-tert-butyl-4-hydroxyphenyl) acetone mercaptole]
- solubility in medium chain triglycerides [2]: sufficiently soluble in medium chain triglycerides
- water solubility [3]: water-insoluble
- water solubility ([3]; listed as probucol): substantially water insoluble

Structure (SMILES): Nc1ccn([C@H]2CC[C@@H](CO)O2)c(=O)n1 [ddC]
- death rate ([1]; after 12 months, 20 patients, average CD4+ count on entry 154): 25%
